The pKd is −log10 of the Kd, conventionally taken in molar units.

Molecules are shown by their SMILES. pKd: −log10 of the molar value.

For one compound, Kd results are on record in patent publication US7348315B2, “Methods of treating heart failure with modified ATP, ADP and AMP compounds” (priority 1995, dated 2008).

The target in this assay is P2 purinergic receptor. Kind of assay: Intact myocyte binding with the P2-selective radioligand [35S]ADPβS. Conditions: intact myocytes; radioligand range 0.5-200 nM; read-out: Kd of low-affinity [35S]ADPβS binding site. Here is the method:
Cardiac ventricular myocytes were prepared and incubated with progressively increasing concentrations of [^35S] ADPβS. The binding reaction is performed by the addition of a Dulbecco's Modified Eagle's Medium (which contains 1-glutamine and glucose but lacks phenol red, adenosine nucleotides, and sodium bicarbonate, buffered by HEPES, pH=7.4) containing [^35S]ADPβS (0.5 to 200 nM, for saturation isotherm study). Nonradioactive ADPβS is used to define the level of nonspecific binding. Additional purinergic agonists or antagonists are added depending on the experimental conditions. Following a 30-minute incubation at 37° C., cells are washed three times with 3 ml of ice-cold wash buffer (containing 120 mM NaCl, 5.4 mM KCl, 0.8 mM MgSO4, 1.8 mM CaCl2, 50 mM HEPES, and 1.0 mM NaH2PO4 adjusted to pH=7.4). One ml of 0.5 M NaOH is added to the monolayer culture to solubilize the cell protein and 0.5 ml of Tris buffer, pH=7.4 is added to neutralize NaOH prior to scintillation counting for ^35S.
To determine the Bmax and Kd of the specific [^35S]ADPβS binding, a computer-aided nonlinear regression analysis (LIGAND PROGRAM) is used. See, […] 1980, 107, 220-239. Both a one-site and a two-site model is applied to fit the data points.

As for `Nc1ncnc2c1ncn2[C@@H]1O[C@H](COP(=O)(O)OP(O)(O)=S)[C@@H](O)[C@H]1O` [[^35S] ADPβS, [^35S] 5′-O-2-thiodiphosphate], the pKd was 7.40.
